From US20060178435A1, “Apogossypolone and the uses thereof” (The Regents of the University of Michigan, priority 2004, published 2006)
Where two headings read alike, the source gives them in different places.

How the values were obtained:
[1] = biological target: T1, human Mcl-1 protein (amino acids 171-327) (Homo sapiens, UniProt Q07820); assay: Fluorescence polarization binding assay for the Mcl-1 protein (Flu-Bid-21 probe)
T1 construct: The fragment encoding amino acids 171-327 was cloned into the pHis-TEV vector; 8xHis (N); made in house; host or cells: E. coli BL21(DE3)

[2] = tested on: MDA-MB-435 breast cancer cell line; assay: Cell growth inhibition, MDA-MB-435; type: cell-based, human
Procedure: (§1) A direct comparison of (−)-gossypol, apogossypol and apogossypolone for their activity in inhibition of cell growth in PC-3 and LnCap prostate cancer cell lines was carried out.
(§2) Additional cell growth inhibition studies were performed using the MDA-MB-231 (subclone 2LMP), T47D, and MDA-MB-435 breast cancer cell lines. Racemic gossypol, apogossypol, apogossypolone, (+)-apogossypol, (−)-apogossypol, and tetra-acetyl apogossypolone (Formula VIII) were tested as described above.

recombinant human Bcl-xL = biological target: T2, recombinant human Bcl-xL (Homo sapiens, UniProt Q07817); assay: Fluorescence polarization binding assay for Bcl-xL (Bak-Flu peptide displacement)
T2 construct: fused to a His-tag without the C-terminus hydrophobic tail; His-tag
Source text: Fluorescence polarization (FP)-based binding assays for Bcl-2 and Bcl-xL were developed and optimized using recombinant human Bcl-2 and Bcl-xL proteins, a Bid BH3 peptide labeled with 6-carboxyfluorescein succinimidyl ester (FAM) and Bak BH3 peptide labeled with 6-(fluorescein-5(6)-carboxamido) hexanoic acid (Flu). The FP-based binding assays measure the ability of an inhibitor to displace either Bid-FAM or Bak-Flu peptide from Bcl-2 or Bcl-xL protein, respectively. The dose-dependent binding experiments were carried out with serial dilutions of the tested compounds in DMSO. For the Bcl-2 binding assay, a 5 μl sample of the inhibitor and preincubated recombinant His-fused soluble Bcl-2 protein (120 nM) with Bid-FAM peptide (10 nM) in the assay buffer (100 mM potassium phosphate, pH 7.5; 100 μg/ml bovine gamma globulin; 0.02% sodium azide, purchased from Invitrogen, Life Technologies), were added in Dynex 96-well, black, round-bottom plates (Fisher Scientific), to produce a final volume of 125 μl. […] The polarization values were measured after 3-4 hr incubation, using an ULTRA READER (Tecan U.S. Inc., Research Triangle Park, N.C.). The Ki value was calculated using a modified Cheng-Prusoff equation based upon the Kd value for the Bid-FAM peptide to Bcl-2, the measured IC50 value, and the concentrations of the protein and Bid-FAM. […]

[3] = tested on: MDA-MB-231 (subclone 2LMP) breast cancer cell line; assay: Cell growth inhibition, MDA-MB-231 (subclone 2LMP); type: cell-based, human; conditions: for fold more potent than gossypol: MDA-MB-231 cell line
Procedure: as §1, §2

[4] = tested on: T47D breast cancer cell line; assay: Cell growth inhibition, T47D; type: cell-based, human
Procedure: as §1, §2

[5] = tested on: PC-3 prostate cancer cell line; assay: Inhibition of cell growth, MTT assay, PC-3; type: cell-based, human; conditions: for potency relative to (−)-gossypol in inhibition of cell growth: PC-3 cell line, 3-5 independent experiments
Procedure: as §1

[6] = Maximal tolerated dose (MTD) in mice; type: in vivo; conditions: for MTD: mouse, in vivo
Procedure: To confirm this prediction, the maximal tolerated dose (MTD) of apogossypolone and (−)-gossypol was evaluated in mice using two different routes of administrations (oral and intravenous). For oral administration (oral gavage 5 days/week), the MTD of apogossypolone was above 240 mg/kg while the MTD for (−)-gossypol was about 50 mg/kg. For intravenous administration (every other day and 3 days/week), the MTD of apogossypolone was about 80 mg/kg while the MTD for (−)-gossypol was about 10 mg/kg. In both routes of administration, the MTD of apogossypolone was 8-times better than (−)-gossypol.

[7] = tested on: LnCap prostate cancer cell line; assay: Inhibition of cell growth, MTT assay, LnCap; type: cell-based; conditions: read-out: IC50, inhibition of cell growth
Procedure: as §1

PC-3 xenografts = assay: Antitumor activity in PC-3 xenograft model, alone or with X-ray irradiation; type: in vivo, nude mice; conditions: for complete tumor regression: Day 57
Procedure: An in vivo study of apogossypolone was carried out using a PC-3 xenograft model in nude mice to evaluate the antitumor activity of apogossypolone alone or in combination with X-ray irradiation. Nude mice with established PC-3 xenografts (150 mm^3 in size) were treated with (1) apogossypolone 200 mg/kg p.o. q.d. 5×4 weeks; (2) fractionated X-ray irradiation to the tumor only, with the animal body shielded, at a dose of 2 Gy q.d. 5×3 weeks, total 30 Gy; and (3) a combination of apogossypolone and radiation.

[8] = Storage stability of the sample; type: physicochemical
recombinant human Bcl-2 = recombinant human Bcl-2 (Homo sapiens, UniProt P10415); assay: Fluorescence polarization binding assay for Bcl-2 (Bid-FAM peptide displacement)
[9] = Homo sapiens, MDA-MB-435, read-out: IC50 (μM) MDA-MB-435
[10] = Homo sapiens, MDA-MB-231, read-out: IC50 (μM) MDA-MB-231
[11] = Homo sapiens, T47D, read-out: IC50 (μM) T47D
[12] = intravenous, every other day and 3 days/week
[13] = Homo sapiens, PC-3 cells, 4-6 day MTT assay, read-out: IC50, inhibition of cell growth
[14] = FP-based binding assay, Ki calculated from IC50 with modified Cheng-Prusoff equation, read-out: Ki
[15] = MDA-MB-435; read-out: IC50 (μM) MDA-MB-435
[16] = MDA-MB-231 (subclone 2LMP), read-out: IC50 (μM) MDA-MB-231

T1 sequence (Q07820 171-327): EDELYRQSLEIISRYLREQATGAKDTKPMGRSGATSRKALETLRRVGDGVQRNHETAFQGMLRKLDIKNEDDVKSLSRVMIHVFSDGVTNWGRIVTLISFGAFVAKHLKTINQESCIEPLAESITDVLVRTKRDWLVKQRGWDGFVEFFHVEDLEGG
recombinant human Bcl-2, sequence (P10415 92-205 limits assumed): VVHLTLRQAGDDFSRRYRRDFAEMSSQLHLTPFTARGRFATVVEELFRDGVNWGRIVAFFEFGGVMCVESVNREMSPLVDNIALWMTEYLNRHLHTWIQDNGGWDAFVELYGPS
T2 sequence (Q07817 1-209 limits assumed): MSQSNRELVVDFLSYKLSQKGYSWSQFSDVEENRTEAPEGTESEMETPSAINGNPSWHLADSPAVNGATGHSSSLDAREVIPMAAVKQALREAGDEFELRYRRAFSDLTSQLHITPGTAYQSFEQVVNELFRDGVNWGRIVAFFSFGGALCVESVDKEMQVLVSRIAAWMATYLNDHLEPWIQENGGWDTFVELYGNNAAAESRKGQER

CC1=C(C2=C(C)C(=O)c3c(cc(O)c(O)c3C(C)C)C2=O)C(=O)c2cc(O)c(O)c(C(C)C)c2C1=O (racemic) [apogossypolone, 6,7,6′,7′-Tetrahydroxy-5,5′-diisopropyl-3,3′-dimethyl-[2,2′]binaphthalenyl-1,4,1′,4′-tetraone]
Ki [1]: 0.051 ± 0.02 µM | fold better binding affinity compared with (−)-gossypol ([1]; Mcl-1): 3.5 fold | IC50 [2, 9]: 4.82 µM | fold more potent than gossypol ([2]; MDA-MB-435 cell line): about 2 fold | Ki (recombinant human Bcl-xL): 1.27 µM | IC50 [3, 10]: 1.27 µM | fold more potent than gossypol [3]: about 9 fold | IC50 [4, 11]: 9.26 µM | fold more potent than gossypol ([4]; T47D cell line): about 2 fold | IC50 ([5]; Homo sapiens, PC-3, read-out: IC50, inhibition of cell growth): 2.2 µM | potency relative to (−)-gossypol in inhibition of cell growth [5]: 3-4 times | MTD relative to (−)-gossypol ([6]; both routes of administration): 8 times | MTD [6, 12]: ~80 mg/kg | MTD ([6]; oral gavage 5 days/week): > 240 mg/kg | IC50 ([7]; Homo sapiens, LNCaP): 1.3 µM | complete tumor regression (PC-3 xenografts; apogossypolone 200 mg/kg p.o. plus X-ray radiation 2 Gy q.d. 5×3 weeks): seven out of ten | complete tumor regression (PC-3 xenografts; apogossypolone alone, 200 mg/kg p.o.): zero out of ten | effect on the tumors (PC-3 xenografts; apogossypolone alone, 200 mg/kg p.o. q.d. 5×4 weeks): limited effect | enhancement of radiation-mediated tumor inhibition (PC-3 xenografts; combination with X-ray radiation, P<0.0001, two-way ANOVA, n=10): significantly enhanced | decomposition on storage ([8]; stored at room temperature for several weeks without the protection of nitrogen): no decomposition was detected | Ki (recombinant human Bcl-2): 0.076 µM

CC1=C(C2=C(C)C(=O)c3c(c(C(=O)O)c(O)c(O)c3C(C)C)C2=O)C(=O)c2c(C(=O)O)c(O)c(O)c(C(C)C)c2C1=O [gossypolonic acid]
IC50 [5, 13]: > 10 µM | Ki (recombinant human Bcl-2; [14]): 0.28 µM

Cc1cc2c(C(C)C)c(O)c(O)c(C=O)c2c(O)c1-c1c(C)cc2c(C(C)C)c(O)c(O)c(C=O)c2c1O (racemic) [(±)-Gossypol, gossypol]
IC50 [2, 9]: 11.4 µM | IC50 [3, 10]: 11.1 µM | IC50 [4, 11]: 16.3 µM

Cc1cc2c(C(C)C)c(O)c(O)c(C=O)c2c(O)c1-c1c(C)cc2c(C(C)C)c(O)c(O)c(C=O)c2c1O [(−)-gossypol, reference compound]
Ki ([1]; FP competitive binding, unit inferred, read-out: Ki to Mcl-1): 0.18 ± 0.01 µM | IC50 ([5]; PC-3 cells, 4-6 day MTT assay, read-out: IC50, inhibition of cell growth): 6.5 µM | maximal tolerated dose (MTD) [6, 12]: about 10 mg/kg | maximal tolerated dose (MTD) ([6]; oral gavage 5 days/week): about 50 mg/kg | IC50 ([7]; LnCap cell line): 4.7 µM

CC[C@H](C)[C@H](NC(=O)[C@H](CC(N)=O)NC(=O)[C@H](CCCN=C(N)N)NC(=O)[C@@H](NC(=O)[C@@H](NC(=O)[C@H](CC(=O)O)NC(=O)[C@H](CCC(=O)O)NC(=O)[C@@H](N)CCC(N)=O)[C@@H](C)CC)[C@@H](C)CC)C(=O)N[C@@H](C)C(=O)N[C@@H](CCCN=C(N)N)C(=O)N[C@@H](Cc1c[nH]cn1)C(=O)N[C@@H](CC(C)C)C(=O)N[C@@H](C)C(=O)N[C@@H](CCC(N)=O)C(=O)N[C@H](C(=O)NCC(=O)N[C@@H](CC(=O)O)C(=O)N[C@@H](CO)C(=O)N[C@@H](CCSC)C(=O)N[C@@H](CC(=O)O)C(=O)N[C@@H](CCCN=C(N)N)C(=O)O)C(C)C [unlabeled Bid 21mer peptide]
Ki [1]: 0.0057 ± 0.0011 µM

Cc1cc2c(C(C)C)c(O)c(O)c(C(=O)O)c2c(O)c1-c1c(C)cc2c(C(C)C)c(O)c(O)c(C(=O)O)c2c1O [gossypolic acid]
IC50 [5, 13]: > 10 µM | Ki (recombinant human Bcl-2; [14]): 0.12 µM

Cc1cc2c(C(C)C)c(O)c(O)cc2c(O)c1-c1c(C)cc2c(C(C)C)c(O)c(O)cc2c1O [(+)-Apogossypol, (+)-apogossypol]
IC50 [2, 15]: 7.28 µM | IC50 [3, 16]: 8.81 µM | IC50 ([4]; T47D; read-out: IC50 (μM) T47D): 14 µM

Cc1cc2c(C(C)C)c(O)c(O)cc2c(O)c1-c1c(C)cc2c(C(C)C)c(O)c(O)cc2c1O [apogossypol]
IC50 [2, 9]: 3.39 µM | fold more potent than gossypol ([2]; MDA-MB-435 cell line): about 3 fold | IC50 [3, 10]: 2.37 µM | fold more potent than gossypol [3]: about 5 fold | IC50 [4, 11]: 6.51 µM | fold more potent than gossypol ([4]; T47D cell line): about 2.5 fold | potency relative to (−)-gossypol in inhibition of cell growth [5]: as potent as (−)-gossypol | time in which the sample decomposed ([8]; stored at −20° C. and under nitrogen): ≤ 1 week | Ki (recombinant human Bcl-2): 0.2 µM

Cc1cc2c(C(C)C)c(O)c(O)cc2c(O)c1-c1c(C)cc2c(C(C)C)c(O)c(O)cc2c1O [(−)-Apogossypol, (−)-apogossypol]
IC50 [2, 15]: 3.13 µM | IC50 [3, 16]: 2.31 µM | IC50 ([4]; T47D; read-out: IC50 (μM) T47D): 4.26 µM

CC[C@H](C)[C@H](NC(=O)[C@H](CC(N)=O)NC(=O)[C@H](CCCNC(=N)N)NC(=O)[C@@H](NC(=O)[C@@H](NC(=O)[C@H](CC(=O)O)NC(=O)[C@H](CCC(=O)O)NC(=O)[C@H](CCC(N)=O)NC(=O)c1ccc2c(c1)C1(OC2=O)c2ccc(O)cc2Oc2cc(O)ccc21)[C@@H](C)CC)[C@@H](C)CC)C(=O)N[C@@H](C)C(=O)N[C@@H](CCCNC(=N)N)C(=O)N[C@@H](Cc1c[nH]cn1)C(=O)N[C@@H](CC(C)C)C(=O)N[C@@H](C)C(=O)N[C@@H](CCC(N)=O)C(=O)N[C@H](C(=O)NCC(=O)N[C@@H](CC(=O)O)C(=O)N[C@@H](CO)C(=O)N[C@@H](CCSC)C(=O)N[C@@H](CC(=O)O)C(=O)N[C@@H](CCCNC(=N)N)C(=O)O)C(C)C [Flu-Bid-21]
Kd ([1]; probe concentration 0.5 nM, read-out: apparent Kd for Mcl-1): 0.0007 µM | Kd ([1]; probe concentration 1 nM, saturation experiment, read-out: Kd for Mcl-1): 0.00083 µM | Kd ([1]; probe concentration 2.5 nM, read-out: apparent Kd for Mcl-1): 0.00105 µM | Kd ([1]; probe concentration 5 nM, read-out: apparent Kd for Mcl-1): 0.00132 µM

CC(=O)Oc1cc2c(c(C(C)C)c1OC(C)=O)C(=O)C(C)=C(C1=C(C)C(=O)c3c(cc(OC(C)=O)c(OC(C)=O)c3C(C)C)C1=O)C2=O [Tetra acetyl apogossypolone, tetra-acetyl apogossypolone]
IC50 ([2]; Homo sapiens, MDA-MB-435; read-out: IC50 (μM) MDA-MB-435): 6.29 µM | IC50 ([3]; Homo sapiens, MDA-MB-231 (subclone 2LMP), read-out: IC50 (μM) MDA-MB-231): 1.32 µM | IC50 ([4]; Homo sapiens, T47D; read-out: IC50 (μM) T47D): 6.33 µM
